Results published in patent publication US20080293712A1, “Benzo[C][2,7]Naphtyridine Derivatives, Methods of Making Thereof and Methods of Use Thereof” (WYETH, priority 2007, published 2008).

Assays:
Assay type in all cases: biochemical
S6K = S6K (Homo sapiens, UniProt P23443); experiment: S6K kinase inhibition, Z'-LYTE FRET assay; details: 100 μM ATP
From the text: The ability of illustrative Benzo[c][2,7]naphthyridine Derivatives to inhibit PKA, Akt1, S6K in vitro can be determined using a Fluorescence Resonance Energy Transfer (FRET) assay, such as a Z′-LYTE™ Kinase Assay Platform, commercially available from Invitrogen (c.f. Rodems et al., ASSAY Drug Devel. Technol. 1:9-19 (2002) and Zhang et al., J. Biomol. Screen. 4:67-73 (1999)). Z′-Lyte™ assay is an in vitro FRET-based assay that utilizes differential sensitivity of phosphorylated and non-phosphorylated peptides to proteolytic cleavage. The peptide substrate (also available from Invitrogen for each of PKA, Akt1 and S6K) is labeled with two different fluorophores, a fluorescence donor at one end of the peptide and a fluorescence acceptor at the other end of the peptide. In the primary kinase reaction, the kinase phosphorylates the peptide substrate in the presence of ATP. In the secondary reaction, a site-specific protease recognizes and cleaves non-phosphorylated peptides, but not phosphorylated peptides. Cleavage disrupts FRET between the donor and acceptor fluorophores on the peptide, whereas uncleaved phosphorylated peptides maintain FRET. Based on a formula that uses the ratio of donor emission (at 460 nm) to acceptor emission (at […]) after excitation of the donor fluorophore at 400 nm, the extent of phosphorylation of the peptide substrates is calculated. IC50 values of illustrative Benzo[c][2,7]naphthyridine Derivatives, shown in Table 12, are calculated using LSW Data Analysis package add-in for Excel (Microsoft).

[1] = molecular target: T1, human PKCθ full length enzyme (Homo sapiens, UniProt Q04759); experiment: PKCθ kinase inhibition, IMAP fluorescence polarization assay; details: 6 μM ATP
T1 construct: human PKCθ full length enzyme; purchased Panvera, Madison, Wis., now Invitrogen, Carlsbad, Calif; P2996
From the text: The ability of illustrative Benzo[c][2,7]naphthyridine Derivatives to inhibit PKCθ can be determined using an IMAP Assay (Molecular Devices Corporation, Sunnyvale, Calif.). The materials used include the following: human PKCθ full length enzyme (Panvera, Madison, Wis., now Invitrogen, Carlsbad, Calif., Cat. No. P2996); substrate peptide: 5FAM-[…]-OH (Molecular Devices, Cat. No. RP7032); ATP (Sigma-Aldrich, St. Louis, Mo., Sigma Cat. No. A2383); DTT (e.g., Pierce, now Fisher Scientific, Waltham, Mass., Pierce Cat. No. 20291); 5× kinase reaction buffer (Molecular Devices, Cat. No. R7209); 5× binding buffer A (Molecular Devices, Cat. No. R7282), 5× binding buffer B (Molecular Devices, Cat. No. R7209); IMAP Beads (Molecular Devices, Cat. No. R7284); and 384-well plates (Corning Costar, Acton, Mass., Cat. No. 3710). The reaction buffer is prepared by diluting the 5× stock reaction buffer and adding DTT to obtain a concentration of 3.0 mM. The binding buffer is prepared by diluting the 5× binding buffer A. A master mix solution is prepared using a 90% dilution of the reaction buffer containing 2×ATP (12 μM) and 2× peptide (200 nM). […] The final concentration of compound is 2× and 10% DMSO. DMSO is added to the rest of the master mix to increase the concentration to 10%. 10 μl of the master mix containing 10% DMSO is added to the rest of the wells on the plate except the 2nd column. 20 μl is transferred from the first column to the 2nd column. The compounds are serially diluted in 2:1 ratio starting from the 2nd column. A 2× (2 nM) PKCθ solution is made in the reaction buffer. 10 μl of the PKCθ solution is added to every well to achieve these final concentrations: PKCθ—1 nM; ATP—6 μM; peptide—100 nM; DMSO—5%. Samples are incubated for 25 minutes at room temperature. The binding reagent is prepared by diluting the beads in 1× binding buffer to 800:1. 50 μl of the binding reagent is added to every well and incubated for 20 minutes. Fluorescence polarization is measured using EnVision™ 2100 multilabel reader (PerkinElmer Life Sciences, Wellesley, Mass.). Wells with no ATPs and wells with no enzymes are used as controls.

PDK-1 = molecular target: T2, PDK-1 (Homo sapiens, UniProt O15530); experiment: PDK-1 kinase inhibition ELISA assay (phosphorylation of His6-tagged SGK1 S422D by PDK-1); details: PDK-1 ELISA, Table 11; read-out: Average IC50
T2 sequence (O15530 1-556): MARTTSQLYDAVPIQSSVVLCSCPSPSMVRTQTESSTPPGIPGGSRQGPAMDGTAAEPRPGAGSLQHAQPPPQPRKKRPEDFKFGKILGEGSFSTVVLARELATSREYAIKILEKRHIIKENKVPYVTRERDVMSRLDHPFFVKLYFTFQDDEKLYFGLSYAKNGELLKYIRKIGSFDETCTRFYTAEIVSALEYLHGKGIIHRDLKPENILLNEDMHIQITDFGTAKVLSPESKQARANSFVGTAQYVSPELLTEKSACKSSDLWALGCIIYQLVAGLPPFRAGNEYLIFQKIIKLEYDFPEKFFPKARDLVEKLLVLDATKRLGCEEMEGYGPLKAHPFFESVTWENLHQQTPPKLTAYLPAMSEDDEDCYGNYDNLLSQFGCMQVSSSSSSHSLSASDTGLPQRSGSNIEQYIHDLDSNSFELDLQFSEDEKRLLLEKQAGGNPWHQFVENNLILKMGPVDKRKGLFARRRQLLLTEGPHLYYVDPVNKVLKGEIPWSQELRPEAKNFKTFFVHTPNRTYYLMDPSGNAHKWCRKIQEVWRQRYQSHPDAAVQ

PKA = PKA (Homo sapiens, UniProt P17612); experiment: PKA kinase inhibition, Z'-LYTE FRET assay
Akt1 = Akt1 (Homo sapiens, UniProt P31749); experiment: Akt1 kinase inhibition, Z'-LYTE FRET assay; details: 100 μM ATP
How it was run: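 Z'-LYTE FRET format: kinase phosphorylates fluorophore-labelled peptide with ATP, then protease cleaves only non-phosphorylated peptide. Phosphorylation calculated from donor (460 nm)/acceptor (535 nm) emission ratio after 400 nm excitation; IC50 values derived.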

Sequence of S6K (P23443 whole entry): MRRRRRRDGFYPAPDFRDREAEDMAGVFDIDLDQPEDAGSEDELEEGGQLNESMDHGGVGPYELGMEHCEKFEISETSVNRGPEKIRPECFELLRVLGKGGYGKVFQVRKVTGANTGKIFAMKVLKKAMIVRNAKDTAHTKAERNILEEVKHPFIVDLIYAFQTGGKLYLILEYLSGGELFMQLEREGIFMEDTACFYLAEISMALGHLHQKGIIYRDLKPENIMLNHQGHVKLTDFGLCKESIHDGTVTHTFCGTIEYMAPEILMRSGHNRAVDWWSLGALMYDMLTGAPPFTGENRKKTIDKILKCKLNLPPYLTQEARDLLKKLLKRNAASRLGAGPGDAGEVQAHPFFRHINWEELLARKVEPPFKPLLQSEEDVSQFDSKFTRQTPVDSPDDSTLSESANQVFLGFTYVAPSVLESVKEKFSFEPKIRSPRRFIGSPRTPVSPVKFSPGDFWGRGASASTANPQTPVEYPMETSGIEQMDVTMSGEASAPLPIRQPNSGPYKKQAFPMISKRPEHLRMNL
Sequence of Akt1 (P31749 whole entry, species assumed): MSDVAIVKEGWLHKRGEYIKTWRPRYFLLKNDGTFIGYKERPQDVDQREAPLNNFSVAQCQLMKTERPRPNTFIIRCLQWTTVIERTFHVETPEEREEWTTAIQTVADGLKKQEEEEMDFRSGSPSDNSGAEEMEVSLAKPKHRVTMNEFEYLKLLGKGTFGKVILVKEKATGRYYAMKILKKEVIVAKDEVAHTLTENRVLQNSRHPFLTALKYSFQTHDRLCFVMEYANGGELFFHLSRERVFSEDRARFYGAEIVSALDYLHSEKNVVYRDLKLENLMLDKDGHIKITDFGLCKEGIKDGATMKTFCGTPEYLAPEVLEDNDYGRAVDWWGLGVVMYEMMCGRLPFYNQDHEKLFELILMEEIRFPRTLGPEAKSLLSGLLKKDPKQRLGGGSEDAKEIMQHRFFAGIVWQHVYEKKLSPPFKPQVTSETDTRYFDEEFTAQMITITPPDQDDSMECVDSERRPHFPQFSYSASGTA
T1 sequence (Q04759 whole entry): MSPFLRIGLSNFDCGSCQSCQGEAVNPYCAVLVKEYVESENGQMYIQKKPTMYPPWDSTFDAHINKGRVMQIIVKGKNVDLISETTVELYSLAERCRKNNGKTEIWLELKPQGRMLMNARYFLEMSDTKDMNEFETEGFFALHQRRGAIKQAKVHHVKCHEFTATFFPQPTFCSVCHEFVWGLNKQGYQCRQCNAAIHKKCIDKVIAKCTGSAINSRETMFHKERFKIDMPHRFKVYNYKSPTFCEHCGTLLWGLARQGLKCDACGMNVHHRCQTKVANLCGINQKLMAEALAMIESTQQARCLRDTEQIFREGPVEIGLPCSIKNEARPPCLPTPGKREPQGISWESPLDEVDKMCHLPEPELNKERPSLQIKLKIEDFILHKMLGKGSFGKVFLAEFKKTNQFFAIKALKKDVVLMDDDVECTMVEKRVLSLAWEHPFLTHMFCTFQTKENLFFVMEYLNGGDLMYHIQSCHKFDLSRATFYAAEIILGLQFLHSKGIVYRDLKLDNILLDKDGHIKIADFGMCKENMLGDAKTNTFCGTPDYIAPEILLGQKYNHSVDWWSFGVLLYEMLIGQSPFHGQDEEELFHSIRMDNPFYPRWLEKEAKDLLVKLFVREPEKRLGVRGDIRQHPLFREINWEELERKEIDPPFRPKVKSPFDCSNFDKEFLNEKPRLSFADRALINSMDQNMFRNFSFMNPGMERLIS

IC50 (S6K) [nM] | IC50 [1] [nM] | IC50 (PDK-1) [nM] | IC50 (PKA; 20 μM ATP) [nM] | IC50 (PKA; 100 μM ATP) [nM] | IC50 (Akt1) [nM] | SMILES
98 to 140 | 29 | 10 | 23 | 146 to 497 | < 160 | COc1cc2ncc3c(N)nc(-c4cncc(OC[C@@H](N)Cc5ccccc5)c4)cc3c2cc1OC [Ib-62, 2-(5-{[(2S)-2-amino-3-phenylpropyl]oxy}pyridin-3-yl)-8,9-dimethoxybenzo[c]-2,7-naphthyridin-4-amine]
– | 525 | 44.5 | > 20000 | – | 1000 | CCSc1cc2ncc3c(N)nc(-c4cncc(OC[C@@H](N)Cc5ccccc5)c4)cc3c2cc1OC [Ia-40, 2-(5-{[(2S)-2-amino-3-phenylpropyl]oxy}pyridin-3-yl)-8-(ethylthio)-9-methoxybenzo[c]-2,7-naphthyridin-4-amine]
254 | 3 | 15 | < 80 | 1320 | 18 | COc1cc2ncc3c(N)nc(-c4cncc(OC[C@H](N)Cc5c[nH]c6ccccc56)c4)cc3c2cc1OC [Ib-55, 2-(5-{[(2R)-2-amino-3-(1H-indol-3-yl)propyl]oxy}pyridin-3-yl)-8,9-dimethoxybenzo[c]-2,7-naphthyridin-4-amine]
1090 | 135 | 46 | – | > 2000 | 360 | CCOc1cc2ncc3c(N)nc(-n4ccnc4)cc3c2cc1N [Ia-28, 8-Ethoxy-2-(1H-imidazol-1-yl)benzo[c]-2,7-naphthyridine-4,9-diamine]
355 | 249 | 66 | 140 | 1530 | 60 | COc1cc2ncc3c(N)nc(-c4cncc(O[C@@H]5CCNC5)c4)cc3c2cc1OC [Ib-58, 8,9-dimethoxy-2-{5-[(3R)-pyrrolidin-3-yloxy]pyridin-3-yl}benzo[c]-2,7-naphthyridin-4-amine]
– | 255 | 508 | > 10000 | – | 225 | COc1cc2c(cc1OCCN1CCCC1)ncc1c(N)nc(-n3ccnc3)cc12 [Ia-12, 2-(1H-imidazol-1-yl)-9-methoxy-8-(2-pyrrolidin-1-ylethoxy)benzo[c]-2,7-naphthyridin-4-amine]
1240 | 592 | 64 | 2000 | > 2000 | 290 | COc1cc2ncc3c(N)nc(-c4cncc(O[C@H]5CCNC5)c4)cc3c2cc1OC [Ib-59, 8,9-dimethoxy-2-{5-[(3S)-pyrrolidin-3-yloxy]pyridin-3-yl}benzo[c]-2,7-naphthyridin-4-amine]
> 2000 | 332 | 57 | > 20000 | > 2000 | 300 | COc1cc2ncc3c(N)nc(-c4cncc(O)c4)cc3c2cc1OC [Ib-57, 5-(4-Amino-8,9-dimethoxybenzo[c]-2,7-naphthyridin-2-yl)pyridin-3-ol]
88 | 4 | – | < 160 | 259 | 3 | COc1cc2ncc3c(N)nc(-c4cncc(OC[C@H](N)Cc5ccccc5)c4)cc3c2cc1OC [Ib-56, 2-(5-{[(2R)-2-amino-3-phenylpropyl]oxy}pyridin-3-yl)-8,9-dimethoxybenzo[c]-2,7-naphthyridin-4-amine]
34 | 17 | 12 | 38 | 390 | 1 | COCCOc1cc2ncc3c(N)nc(-c4cncc(OC[C@@H](N)Cc5ccccc5)c4)cc3c2cc1OC [Ia-11, 2-(5-{[(2S)-2-amino-3-phenylpropyl]oxy}pyridin-3-yl)-9-methoxy-8-(2-methoxyethoxy)benzo[c]-2,7-naphthyridin-4-amine]
656 | 121 | 79 | > 10000 | > 2000 | 70 | COc1cc2c(cc1OCCN1CCOCC1)ncc1c(N)nc(-n3ccnc3)cc12 [Ia-13, 2-(1H-imidazol-1-yl)-9-methoxy-8-(2-morpholinoethoxy)benzo[c][2,7]naphthyridin-4-amine]
1560 | – | 65 | > 20000 | > 2000 | 300 | COc1cc2c(cc1OCCCl)ncc1c(N)nc(-n3ccnc3)cc12 [Ia-21, 8-(2-chloroethoxy)-2-(1H-imidazol-1-yl)-9-methoxybenzo[c][2,7]naphthyridin-4-amine]
1380 | 116 | – | > 20000 | > 2000 | 200 | COCCOc1cc2ncc3c(N)nc(-n4ccnc4)cc3c2cc1OC [Ia-48, 2-(1H-imidazol-1-yl)-9-methoxy-8-(2-methoxyethoxy)benzo[c]-2,7-naphthyridin-4-amine]
